According to patent publication US20090202499A1, “Human Telomerase Reverse Transcriptase Peptides” (priority 2006, published 2009):
Entries after “also recorded” stand apart in the source; their conditions may differ.

Tests used:
[1] = test system: RMA-B7 cells pulsed with the homologous hTRT peptide; experiment: peptide immunization of HLA-B7 Tg mice, 51Cr-release assay; format: in vivo; conditions: 100 micrograms peptide + HBV helper peptide in IFA, s.c.
Procedure: FIG. 1. […] HLA-B7 Tg mice were vaccinated with 100 micrograms of individual hTRT peptide together with 120 micrograms of HBV helper peptide in IFA. Ten days after immunization, spleen lymphocytes were restimulated in vitro with peptide and fresh, irradiated syngeneic APC. Restimulations were performed on a weekly basis. A standard 4 hour ^51Cr-release assay was performed on day 5 after in vitro restimulation, using RMA-B7 cells pulsed with the homologous hTRT peptide as targets and an E:T ratio of 25:1. Results are expressed as the mean specific lysis plus or minus standard deviation of responder mice only, whose number is indicated in each panel. Tests were run in duplicate.
In vivo immunization procedures. Peptide immunization. HLA B7 transgenic mice (28) were injected s.c. at the base of the tail with 100 micro-grams of hTRT peptides along with 120 micro-grams of I-A^b MHC Class II helper peptide 128-140 of the hepatitis B virus core protein in incomplete Freunds' adjuvant as described previously (12). Long-term CTL lines were maintained in culture by weekly restimulation with irradiated, peptide-pulsed syngeneic spleen cells in RPMI-1640 medium containing 10% heat inactivated fetal bovine serum, 2 mM glutamine, 5×10^−5 M 2-Mercaptoethanol, 50 micro-grams/ml streptomycin, and 50 micro-grams/ml penicillin (complete medium) and supplemented with 40 IU/ml of recombinant human IL-2.
(§1) CTL assays. Both murine and human CTL were detected by the ^51Cr release assay performed as previously described (14). Briefly, HLA-B7^+ antigen presenting cells (RMA-B7 or T2-B7 cells) were labeled for 1 hr with 100 micro-Ci of Na2^51CrO4 (Perkin Elmer). Washed cells (5×10^3 per well) were mixed in 96-well plates in 100 micro-liters/well with each peptide (at 10 micro-grams/ml or lower concentration) and 100 micro-liters of the CTL effector cells (at various E:T ratio) in RPMI medium. The plates were incubated for 4-5 hrs at 37° C. (5% CO2). The supernatants were harvested and counted on a Wallac 1470 Wizard Gamma counter. The percent lysis was calculated as 100 (cpmexp−cpmspont)/(cpmmax−cpmspont).
In order to assign immunogenicity to each of the peptides and correlate this property with the binding characteristics and the scores of the predictive algorithms, we immunized HLA-B7 Tg mice (28). Ten to eleven days after immunization mice were sacrificed, the spleen harvested and splenocytes put in culture with LPS/Dextran activated APC, and tested in a 4 hour ^51Cr-release assay. As shown, only five out of seven peptides yielded a meaningful, specific CTL response even after a third cycle of in vitro restimulation (FIG. 1). All immunogenic peptides induced a response from the first in vitro restimulation and this response increased upon subsequent rounds of antigen restimulation. As noted the lysis of peptide-pulsed RMA-B7 target cells increased at each round of in vitro restimulation. No lysis occurred on RMA-B7 cells not pulsed with peptide. Thus, the in vivo results together with the actual measure of the avidity of HLA-B7 binding avidity distinguished two groups of 9mer hTRT peptides.

[2] = test system: T2-B7 pulsed with peptide; experiment: small scale in vitro immunization of normal donor PBMC (96 well plate), micro 51Cr-release CTL assay; format: cell-based, human; conditions: for CTL response (specific lysis) Donor 1 / CTL response (specific lysis) Donor 2 / CTL response (specific lysis) Donor 3 / CTL response (specific lysis) Donor 4 / CTL response (specific lysis) Donor 5 / CTL response (specific lysis) Donor 6 / CTL response (specific lysis) Donor 7 / CTL response (specific lysis) Donor 8: HLA-B7+ normal donor PBMC, day 10-11, approximate E:T 10:1; for CTL response of normal donor PBMC in micro-CTL assay (in words): eight HLA-B7+ normal donors; for Low R/Total: low responders among eight donors; for High R/Total: responders considered at >50% specific CTL lysis, eight donors
Procedure: In vitro immunization procedures. In experiments shown in Table III and FIG. 3, immunizations were performed in 96 well plates. Briefly, 2×10^5 irradiated (6000 rads) human PBMC were plated in 96 (flat) well-plate in 100 micro-liters of complete human medium (RPMI 1640 medium containing 10% heat inactivated human AB serum, 2 mM glutamine, 50 micro-grams/ml streptomycin and 50 micro-grams/ml penicillin) with 100 micro-grams/ml of peptide. 12 wells per peptide were plated per patient. Then 2×10^5 PBMC in 100 micro-liters of complete human medium were added into each well. Four days later 100 micro-liters of medium were replaced with 100 micro-liters of fresh complete human medium containing 80 IU/ml of IL-2. At day 6-7, 100 IU/ml of IL-2 were added and wells were split into two. On day 10-11 micro-cytotoxicity assay was performed. In experiments shown in FIGS. 4 and 5 human PBMC were stimulated in vitro in 24 well plate with autologous, irradiated, peptide-pulsed adherent cells in the presence of IL-2 and IL-7 as previously described (12). On day 4 to 5 after restimulation, effector CTL were tested in a standard ^51Cr-release assay.
as §1
To further assess the immunogenicity of the selected peptide candidates as well as their ability to expand precursor CD8 T cell in human PBMC, the following experiment was performed. PBMC from eight HLA-B7^+ normal donors were screened in a small scale in vitro immunization assay (96 well plate assay) to determine the level of responses against each individual peptide. As indicated the response to these peptides varied among the eight donors. […] Thus, the results of this in vitro assay narrowed the spectrum of immunogenic peptides beyond those identified in vivo in HLA-B7 Tg mice. A typical result of this type of analysis is shown in FIG. 3, which depicts the induction of CTL and their specificity in each of the twelve wells. As shown, there is considerable variability in the number of positive wells per peptide as well as in the percentage lysis which itself varied from peptide to peptide. This variation in the response to each peptide may be related to either an intrinsic characteristic of the peptide (e.g., its avidity) or a variation in the frequency of CD8 T cell precursors for that peptide among donors particularly in view of the format of the assay used.
PBMC from HLA-B7^+ normal blood donors were pulsed with the candidate peptide in 96 well plate assay (described in Material and Methods), and tested for lysis of T2-B7 pulsed with peptide on day 10-11. A micro ^51Cr-release assay was performed as described in Material and Methods. Responders were considered at >50% specific CTL lysis. CTL assays were performed at an approximate E:T ratio of 10:1. ND not done

| SMILES | immunogenicity in vivo, CTL response after peptide immunization (in words) [1] | CTL response (specific lysis) Donor 1 [2] | CTL response (specific lysis) Donor 2 [2] | CTL response (specific lysis) Donor 3 [2] | CTL response (specific lysis) Donor 4 [2] | CTL response (specific lysis) Donor 5 [2] | CTL response (specific lysis) Donor 6 [2] | CTL response (specific lysis) Donor 7 [2] | CTL response (specific lysis) Donor 8 [2] | CTL response of normal donor PBMC in micro-CTL assay (in words) [2] | Low R/Total [2] | High R/Total [2] |
| --- | --- | --- | --- | --- | --- | --- | --- | --- | --- | --- | --- | --- |
| CC(C)C[C@H](NC(=O)[C@H](CCCNC(=N)N)NC(=O)[C@H](CCCNC(=N)N)NC(=O)[C@H](CC(C)C)NC(=O)[C@H](CS)NC(=O)[C@H](C)NC(=O)[C@H](CCCNC(=N)N)NC(=O)[C@@H](NC(=O)[C@@H](N)Cc1ccccc1)C(C)C)C(=O)O [p464] | good immunogenicity in vivo | >50% | >50% | 0% | >25% | <25% | <25% | <25% | 0% | strong responses but in fewer instances only | 1/8 | 2/8 |
| CC(C)C[C@H](NC(=O)[C@H](CO)NC(=O)[C@H](CO)NC(=O)[C@H](CC(C)C)NC(=O)[C@H](CC(C)C)NC(=O)[C@H](Cc1ccccc1)NC(=O)[C@H](CO)NC(=O)[C@@H]1CCCN1C(=O)[C@@H](N)CCCNC(=N)N)C(=O)O [p342] | good immunogenicity in vivo | >25% | >25% | >25% | >50% | 0% | <25% | >25% | 0% | strong responses but in fewer instances only | 4/8 | 1/8 |
| CC(C)C[C@H](NC(=O)[C@H](CO)NC(=O)[C@@H](NC(=O)[C@H](C)NC(=O)[C@H](CCC(=O)O)NC(=O)[C@H](CCC(=O)O)NC(=O)[C@H](C)NC(=O)[C@@H]1CCCN1C(=O)[C@@H](N)CCCNC(=N)N)[C@@H](C)O)C(=O)O [p277] | good immunogenicity in vivo | >50% | >50% | >50% | >50% | >50% | <25% | <25% | <25% | strong responses in the majority of the subjects | 0/8 | 5/8 |
| CC(C)C[C@H](NC(=O)[C@H](CC(C)C)NC(=O)[C@H](CCC(N)=O)NC(=O)[C@@H](NC(=O)[C@H](CC(C)C)NC(=O)[C@H](CCCNC(=N)N)NC(=O)[C@H](CCCNC(=N)N)NC(=O)[C@@H]1CCCN1C(=O)[C@@H](N)CC(=O)O)C(C)C)C(=O)O [p444] | not immunogenic in vivo; also recorded: poor immunogenicity; also recorded: poorly immunogenic |  |  | <25% | >25% | 0% | 0% | 0% | <25% | poorly immunogenic in vitro; also recorded: poor immunogenicity | 1/8 | 0/8 |
| CC(C)C[C@H](NC(=O)[C@H](C)NC(=O)[C@@H](NC(=O)[C@H](CC(C)C)NC(=O)[C@@H](NC(=O)[C@@H](NC(=O)CNC(=O)[C@@H]1CCCN1C(=O)[C@@H](N)CC(C)C)[C@@H](C)O)[C@@H](C)O)[C@@H](C)O)C(=O)O [p1107, LPGTTLTAL] | good immunogenicity in vivo | >50% | >50% | 0% | >50% | >25% | <25% | >25% | 0% | strong responses but in fewer instances only | 2/8 | 3/8 |
| CC[C@H](C)[C@H](NC(=O)[C@@H](NC(=O)[C@H](CCCCN)NC(=O)[C@H](Cc1ccccc1)NC(=O)[C@H](CC(=O)O)NC(=O)[C@H](CO)NC(=O)[C@@H]1CCCN1C(=O)[C@@H](N)CC(C)C)[C@@H](C)O)C(=O)N[C@@H](CC(C)C)C(=O)O [p1123] | good immunogenicity in vivo | >50% | >50% | >50% | <25% | >50% | >50% | >50% | >50% | strong responses in the majority of the subjects | 0/8 | 7/8 |
